# Experiments:
# Format in all cases: in vivo
# [1] = system: Maize; assay: Pre-emergence herbicidal test, fibre trays (Example 33); set-up: key: 0 = 0-20% damage, 5 = complete kill, vs untreated control; conditions: 2.0 kg/ha, after 21 days
# Procedure: (§1) The compounds were formulated for test by mixing an appropriate amount with 5 ml of an emulsion prepared by diluting 160 ml of a solution containing 21.S g per litre of "Span" 80 and 78.2 g per litre of "Tween" 20 in methylcyclohexanone to 500 ml with water. "Span" 80 is a Trade Mark for a surface-active agent comprising sorbitan monolaurate. "Tween" 20 is a Trade Mark for a surface-active agent comprising a condensate of sorbitan monolaurate with 20 molar proportions of ethylene oxide. Each 5 ml emulsion containing a test compound was'then diluted to 40 ml with water and sprayed on to young pot plants (post-emergence test) of the species named in Table 5 below. Damage to test plants was assessed after 14 days on a scale of 0 to 5 where 0 is 0 to 20% damage and 5 is complete kill. In a test for pre-emergence herbicidal activity, seeds of the test plants were sown in a shallow slit formed in the surface of soil in fibre trays. The surface was then levelled and sprayed, and fresh soil then spread thinly over the sprayed surface. Assessment of herbicidal damage was carried out after 21 days using the same scale of 0 to 5 as the post-emergence test. In both cases the degree of herbicidal damage was assessed by comparison with untreated control plants. A dash (-) means that no experiment was carried out.
# [2] = system: Rice; assay: as above; conditions: 2.0 kg/ha, after 21 days
# Procedure: as §1
# [3] = system: Cotton; assay: as above; conditions: 2.0 kg/ha, after 21 days
# Procedure: as §1
# [4] = system: Rape; assay: as above; conditions: 2.0 kg/ha, after 21 days
# Procedure: as §1
# [5] = system: Senecio vulgaris; assay: as above; conditions: 2.0 kg/ha, after 21 days
# Procedure: as §1
# [6] = system: Soy bean; assay: as above; conditions: 2.0 kg/ha, after 21 days
# Procedure: as §1
# [7] = system: Sugar beet; assay: as above; conditions: 2.0 kg/ha, after 21 days
# Procedure: as §1
# [8] = system: Winter wheat; assay: as above; conditions: 2.0 kg/ha, after 21 days
# Procedure: as §1
# [9] = system: Maize; assay: Post-emergence herbicidal test, young pot plants (Example 33); conditions: 2.0 kg/ha, after 14 days
# Procedure: as §1
# [10] = system: Rice; assay: as above; conditions: 2.0 kg/ha, after 14 days
# Procedure: as §1
# [11] = system: Winter wheat; assay: as above; set-up: key: 0 = 0-20% damage, 5 = complete kill, vs untreated control; conditions: 2.0 kg/ha, after 14 days
# Procedure: as §1
# [12] = system: Amaranthus retroflexus; assay: as above; conditions: 2.0 kg/ha, after 14 days
# Procedure: as §1
# [13] = system: Chenopodium album; assay: as above; conditions: 2.0 kg/ha, after 14 days
# Procedure: as §1
# [14] = system: Cotton; assay: as above; conditions: 2.0 kg/ha, after 14 days
# Procedure: as §1
# [15] = system: Ipomea purpurea; assay: as above; conditions: 2.0 kg/ha, after 14 days
# Procedure: as §1
# [16] = system: Polygonum aviculare; assay: as above; conditions: 2.0 kg/ha, after 14 days
# Procedure: as §1
# [17] = system: Rape; assay: as above; conditions: 2.0 kg/ha, after 14 days
# Procedure: as §1
# [18] = system: Senecio vulgaris; assay: as above; conditions: 2.0 kg/ha, after 14 days
# Procedure: as §1
# [19] = system: Soy bean; assay: as above; conditions: 2.0 kg/ha, after 14 days
# Procedure: as §1
# [20] = system: Sugar beet; assay: as above; conditions: 2.0 kg/ha, after 14 days
# Procedure: as §1
# [21] = system: Ryegrass; assay: Pre-emergence herbicidal activity (Example 31); set-up: key: 0-3 scale: 0 = 0-25% damage, 3 = 75-99% kill, 3+ = 100% kill; conditions: 10 kg/ha, after three weeks
# Procedure: (§2) Concentrated formulations of the compounds of the invention were prepared by: • a) in the case of oils and waxy solids, dissolving the compound in toluene containing 7% v/v "Teric" N13 ("Teric" is a Trade MarK and "Teric" N13, a product of ethoxylation of nonylphenol, is available from ICI Australia Limited) and 3% v/v "Kemmat" SC15B ("Kemmat" is a Trade Mark and "Kemmat" SC15B is a formulation of calcium dodecylbenzene sulfonate); or • b) in the case of crystalline solids, adding 5 parts by weight of the compound and 1 part by weight of . ''Dyapol" PT ("Dyapol" is a Trade Mark and "Dyapol" PT is an anionic suspending agent) to 94 parts by weight of an aqueous solution containing 0.25% v/v of "Teric" N8 (a product of ethoxylation of nonylphenol) and ball-milling the mixture to produce a stable suspension. The emulsifiable concentrates and suspensions were then diluted with water to give an aqueous composition of the required concentration suitable for use in the evaluation of the pre-emergence and post-emergence herbicidal activity of the compounds of the invention.
# (§3) The pre-emergent herbicidal activity of the compounds of the invention formulated as described in Example 30 was assessed by the following procedure.
# (§4) The seeds of the test species were sown in rows 2 cm deep in soil contained in seed boxes. The monocotyledonous plants and the dicotyledonous plants were sprayed with the required quantity of a composition of the invention. Two duplicate seed Doxes were prepared in the same manner but were not sprayed with a composition of the invention and were used for comparison purposes. All the boxes were placed in a glasshouse, lightly watered with an overhead spray to initiate germination and then sub-irrigated as required for optimum plant growth. After three weeks the boxes were removed from the glasshouse and the effect of the treatment was visually assessed. The results are presented in Table 3 where the damage to plants is rated on a scale of from 0 to 3 where 0 represents from 0 to 25% damage, 3 represents 75 to 99% kill and 3+ represents 100% kill.
# (§5) A dash (-) means that no experiment was carried out.
# [22] = system: Wheat; assay: Pre-emergence herbicidal activity (Example 31); set-up: key: 0-3 scale: 0 = 0-25% damage, 3 = 75-99% kill, 3+ = 100% kill; conditions: 10 kg/ha, after three weeks
# Procedure: as §2, §3, §4, §5
# [23] = system: Ipomea; assay: Pre-emergence herbicidal activity (Example 31); conditions: 10 kg/ha, after three weeks
# Procedure: as §2, §3, §4, §5
# [24] = system: Japanese millet; assay: Pre-emergence herbicidal activity (Example 31); conditions: 10 kg/ha, after three weeks
# Procedure: as §2, §3, §4, §5
# [25] = system: Mustard; assay: Pre-emergence herbicidal activity (Example 31); conditions: 10 kg/ha, after three weeks
# Procedure: as §2, §3, §4, §5
# [26] = system: Sunflower; assay: Pre-emergence herbicidal activity (Example 31); conditions: 10 kg/ha, after three weeks
# Procedure: as §2, §3, §4, §5
# [27] = system: Wild Oats; assay: Pre-emergence herbicidal activity (Example 31); conditions: 10 kg/ha, after three weeks
# Procedure: as §2, §3, §4, §5
# [28] = system: Wheat; assay: Post-emergence herbicidal activity (Example 32); set-up: key: 0-3 scale: 0 = 0-25% damage, 3 = 75-99% kill, 3+ = 100% kill; conditions: 3 weeks after spraying
# Procedure: as §2
# (§6) The post-emergent herbicidal activity of the compounds of the invention formulated as described in Example 30 was assessed by the following procedure.
# (§7) The seeds of the test species were sown in rows 2 cm deep in soil contained in seed boxes. The monocotyledonous plants and the dicotyledonous plants were sown in separate seed boxes in duplicate. The four seed boxes were placed in a glasshouse, lightly watered with an overhead spray to initiate germination and then sub-irrigated as required for optimum plant growth. After the plants had grown to a height of about 10 to 12.5 cm one box of each of the monocotyledonous plants and the dicotyledonous plants was removed from the glasshouse and sprayed with the required quantity of a composition of the invention. After spraying the boxes were returned to the glasshouse for further 3 weeks and the effects of the treatment was visually assessed by comparison with the untreated controls. The results are presented in Table 4 where the damage to plants is rated on a scale of from 0 to 3 where 0 represents 0 to 25% damage, 3 represents 75 to 99% kill and 3+ represents 100% kill. A dash (-) means that no experiment was carried out.
# [29] = system: Japanese millet; assay: Post-emergence herbicidal activity (Example 32); conditions: 3 weeks after spraying
# Procedure: as §2, §6, §7
# [30] = system: Mustard; assay: Post-emergence herbicidal activity (Example 32); conditions: 1 kg/ha, 3 weeks after spraying
# Procedure: as §2, §6, §7
# [31] = system: Ryegrass; assay: Post-emergence herbicidal activity (Example 32); conditions: 3 weeks after spraying
# Procedure: as §2, §6, §7
# [32] = system: Sunflower; assay: Post-emergence herbicidal activity (Example 32); conditions: 3 weeks after spraying
# Procedure: as §2, §6, §7
# [33] = system: Wild Oats; assay: Post-emergence herbicidal activity (Example 32); conditions: 10 kg/ha, 3 weeks after spraying
# Procedure: as §2, §6, §7
# [34] = system: Ipomea purpurea; assay: Pre-emergence herbicidal test, fibre trays (Example 33); conditions: 2.0 kg/ha, after 21 days
# Procedure: as §1
smiles,measurement,setting,value
"COC(=O)C(C)Oc1ccc(Nc2ccc(Cl)cc2)cc1 (centres unmarked) [Compound 12, Methyl 2-[4-(4-chloroanilino)prienoxy]propionate]","herbicidal damage, Mz",[1],0 (0 is 0 to 20% damage)
same,"herbicidal damage, Rc",[2],0 (0 is 0 to 20% damage)
same,"herbicidal damage, Ct",[3],1
same,"herbicidal damage, Rp",[4],1
same,"herbicidal damage, Sn",[5],0 (0 is 0 to 20% damage)
same,"herbicidal damage, Sy",[6],1
same,"herbicidal damage, Sb",[7],2
same,"herbicidal damage, Ww",[8],0 (0 is 0 to 20% damage)
same,"damage to test plants, Mz",[9],2
same,"damage to test plants, Rc",[10],0 (0 is 0 to 20% damage)
same,"damage to test plants, Ww",[11],0 (0 is 0 to 20% damage)
same,"damage to test plants, Am",[12],2
same,"damage to test plants, Ca",[13],0 (0 is 0 to 20% damage)
same,"damage to test plants, Ct",[14],0 (0 is 0 to 20% damage)
same,"damage to test plants, Ip",[15],0 (0 is 0 to 20% damage)
same,"damage to test plants, Pi",[16],0 (0 is 0 to 20% damage)
same,"damage to test plants, Rp",[17],0 (0 is 0 to 20% damage)
same,"damage to test plants, Sn",[18],1
same,"damage to test plants, Sy",[19],0 (0 is 0 to 20% damage)
same,"damage to test plants, Sb",[20],1
COC(=O)C(C)Oc1ccc(Nc2ccc([N+](=O)[O-])cc2[N+](=O)[O-])cc1 (centres unmarked) [Compound 15],"damage to plants, Rg",[21],3 (3 represents 75 to 99% kill)
same,"damage to plants, Wh",[22],0 (0 represents from 0 to 25% damage)
same,"damage to plants, Ip",[23],0 (0 represents from 0 to 25% damage)
same,"damage to plants, Jm",[24],3 (3 represents 75 to 99% kill)
same,"damage to plants, Ms",[25],0 (0 represents from 0 to 25% damage)
same,"damage to plants, Sf",[26],0 (0 represents from 0 to 25% damage)
same,"damage to plants, Ot",[27],1
same,"damage to plants, Wh",[28]; 1 kg/ha,0 (0 represents 0 to 25% damage)
same,"damage to plants, Wh",[28]; 5 kg/ha,2
same,"damage to plants, Wh",[28]; 10 kg/ha,2
same,"damage to plants, Jm",[29]; 1 kg/ha,3 (3 represents 75 to 99% kill)
same,"damage to plants, Jm",[29]; 5 kg/ha,3+ (3+ represents 100% kill)
same,"damage to plants, Jm",[29]; 10 kg/ha,3+ (3+ represents 100% kill)
same,"damage to plants, Ms",[30],1
same,"damage to plants, Rg",[31]; 1 kg/ha,1
same,"damage to plants, Rg",[31]; 5 kg/ha,3+ (3+ represents 100% kill)
same,"damage to plants, Rg",[31]; 10 kg/ha,3+ (3+ represents 100% kill)
same,"damage to plants, Sf",[32]; 1 kg/ha,0 (0 represents 0 to 25% damage)
same,"damage to plants, Sf",[32]; 5 kg/ha,0 (0 represents 0 to 25% damage)
same,"damage to plants, Sf",[32]; 10 kg/ha,0 (0 represents 0 to 25% damage)
same,"damage to plants, Ot",[33],2
same,"herbicidal damage, Mz",[1],2
same,"herbicidal damage, Rc",[2],0 (0 is 0 to 20% damage)
same,"herbicidal damage, Ct",[3],0 (0 is 0 to 20% damage)
same,"herbicidal damage, Ip",[34],0 (0 is 0 to 20% damage)
same,"herbicidal damage, Rp",[4],0 (0 is 0 to 20% damage)
same,"herbicidal damage, Sn",[5],0 (0 is 0 to 20% damage)
same,"herbicidal damage, Sy",[6],1
same,"herbicidal damage, Sb",[7],0 (0 is 0 to 20% damage)
same,"herbicidal damage, Ww",[8],0 (0 is 0 to 20% damage)
same,"damage to test plants, Mz",[9],4
same,"damage to test plants, Rc",[10],2
same,"damage to test plants, Ww",[11],2
same,"damage to test plants, Am",[12],2
same,"damage to test plants, Ca",[13],1
same,"damage to test plants, Ct",[14],2
same,"damage to test plants, Ip",[15],0 (0 is 0 to 20% damage)
same,"damage to test plants, Pi",[16],0 (0 is 0 to 20% damage)
same,"damage to test plants, Rp",[17],2
same,"damage to test plants, Sn",[18],0 (0 is 0 to 20% damage)
same,"damage to test plants, Sy",[19],2
same,"damage to test plants, Sb",[20],0 (0 is 0 to 20% damage)
